Reference: patent publication US6555571B2, “3-methyl -chromane or thiochromane derivatives” (Chugai Seiyaku Kabushiki Kaisha, priority 1999, dated 2003)

Tested on: increase in uterus weight by stimulus with estradiol
Test: Anti-estrogenic activity via oral administration (inhibition of estradiol-stimulated increase in uterus weight in ovariectomized mice)
Format: in vivo
Settings: ovariectomized ICR mice, 17β-estradiol-benzoate 0.1 μg/day s.c. for 3 days, test compound 10 mg/kg p.o., once a day, uterus weighed 24 hours after last administration
Protocol: Oral anti-estrogenic activity in vivo of the test compound was determined according to the method described hereinafter. […] In this experiment, the test compounds and the control compound were suspended in 5% arabic gum solution and orally administered for 3 days, once a day. After 24 hours from the last administration, the test animal was sacrificed and uterus was removed and weighed.

In order of rising “Inhibition (%) of the increase in uterus weight by estradiol” value:
1. C[C@]1(c2ccc(O)cc2)CCc2cc(O)ccc2C1CCCCCCCCC[S+]([O-])CCCC(F)(F)C(F)(F)F (some centres unmarked) [ZM189154, reference compound]  41.7%
2. C[C@]1(c2ccc(O)cc2)CSc2cc(O)ccc2[C@H]1CCCCCCCCCC(CCCCCCC(F)(F)C(F)(F)F)C(=O)O (stereo partly drawn) [Example 2, (3′RS,4′RS)-11-[7-hydroxy-3-(4-hydroxyphenyl)-3-methylthiochroman-4-yl]-2-(7,7,8,8,8-pentafluorooctyl)undecanoic acid]  62.0%
3. C[C@]1(c2ccc(O)cc2)COc2cc(O)ccc2[C@H]1CCCCCCCCC(CCCCCCC(F)(F)C(F)(F)F)C(=O)O (stereo partly drawn) [Example 4, (3′RS,4′RS)-10-[7-hydroxy-3-(4-hydroxyphenyl)-3-methylchroman-4-yl]-2-(7,7,8,8,8-pentafluorooctyl)decanoic acid]  71.4%
4. C[C@]1(c2ccc(O)cc2)CSc2cc(O)ccc2[C@H]1CCCCCCCCC(CCCCCCC(F)(F)C(F)(F)F)C(=O)O (stereo partly drawn) [Example 1, (3′RS,4′RS)-10-[7-hydroxy-3-(4-hydroxyphenyl)-3-methylthiochroman-4-yl]-2-(7,7,8,8,8-pentafluorooctyl)decanoic acid]  78.9%
5. C[C@]1(c2ccc(O)cc2)COc2cc(O)ccc2[C@H]1CCCCCCCCCC(CCCCCCC(F)(F)C(F)(F)F)C(=O)O (stereo partly drawn) [Example 3, (3′RS,4′RS)-11-[7-hydroxy-3-(4-hydroxyphenyl)-3-methylchroman-4-yl]-2-(7,7,8,8,8-pentafluorooctyl)undecanoic acid]  85.1%
